Here are results for one compound from patent US20240002429A1, “PRODRUG OF 5a-HYDROXY-6ß-[2-(1H-IMIDAZOL-4-YL)ETHYLAMINO]CHOLESTAN-3ß-OL AND PHARMACEUTICAL COMPOSITIONS COMPRISING SAME FOR USE IN THE TREATMENT OF CANCER” (priority 2020, published 2024).

The test deals with 4T1 cells. The test is described as follows: Cytotoxicity on 4T1 cells, LDH. The format is cell-based, murine. The conditions noted are these: Mus musculus, 4T1, LDH, 48 h. Here is the method:
The cellular viability tests were carried out on murine mammary tumor 4T1 cells characterized as negative triples (HER2−, ER−, PR−).
For this experiment, a cell culture medium was prepared. The culture medium consists of Dulbecco's Modified Eagle Medium (DMEM, marketed by Westburg under the reference LO BE12-604F), comprising 4.5 g/L glucose with L-glutamine, to which 10% of fetal calf serum (FCS) and 50 U/mL of penicillin/streptomycin are added. The 4T1 cells are introduced into this culture medium.
96-well plates were seeded with 2000 4T1 cells per well. After 72 hours (h) of culture in normal conditions, i.e. in an incubator at a temperature of 37° C. at 5% CO2, the 4T1 cells are treated for 48 h with DX101, DX107, DX113, DX117, DX119, DX121 or DX131 at 100 nM, 1 μM, 2.5 μM and 10 μM. A control condition (CTL) is also carried out in parallel using the protocol described above but without treatment with the molecules DX101, DX107, DX113, DX117, DX119, DX121, DX131 or DX133.
For the second method, the percentage viability is determined using assay of the activity of the enzyme LDH (lactate dehydrogenase) in the cellular supernatants using the kit non radioactive cytotoxicity assay kit (Promega). LDH is an enzyme released in the supernatant of dead cells. The higher the LDH activity in the supernatant, the greater is the cell death. In this enzyme test, the LDH released converts a violet tetrazolium salt to formazan, of red color, absorbing at 490 nm. The intensity of the red color is proportional to the number of dead cells. After 48 h of treatment, the supernatants are transferred to a new 96-well plate and are incubated for 30 minutes in the presence of the substrate mix at room temperature. The reaction is stopped using the stop buffer and the absorbance is determined at 490 nm. The percentage cell death is determined here using a control 100% of maximum activity of LDH (carried out with untreated cells incubated in the presence of the lysis solution for 45 minutes at 37° C. just before adding the substrate mix), and the cellular viability in each well is then deduced from this percentage. IC50 is then determined as explained in the preceding paragraph.

Read-outs that look alike come from different tables or passages of the source.

Take `CCC(=O)O[C@H]1CC[C@]2(C)[C@H]3CC[C@]4(C)[C@@H]([C@H](C)CCCC(C)C)CC[C@H]4[C@@H]3C[C@@H](NCCc3c[nH]cn3)[C@@]2(O)C1` [DX107, 5α-hydroxy-6β-[2-(1H-imidazol-4-yl)ethylamino]cholestan-3β-yl propionate]: the IC50 (log of IC50 in μM, read-out: Mean LogIC50 (±SEM) (converted)) was 3.31 µM and the IC50 (read-out: IC50) came to 3.29 µM.
